Assay results reported in ChEMBL document CHEMBL3271994, “Diethyl (4baalpha,4calpha,9aalpha,9balpha)-3,6-dichlorocyclobuta[1,2-b:3,4-b']bisbenzofuran-9a,9b(4bH,4cH)-dicarboxylate: the cis,syn photodimer of ethyl 5-chlorobenzofuran-2-carboxylate, an analogue related to the antilipidemic drug clofibrate” (J Med Chem, 1978).
Calls of active or inactive are those of the source. The calls are words filed in the database; no cut-off is given here.

Key:
Rattus norvegicus [1] = assay: Antilipidemic activity in sucrose fed Sprague-Dawley rat model assessed as serum cholesterol level at 0.2 mmol/kg, po bid administered for 7 days measured after 12 hrs post last dose (reference value: 61.7 +/- 11.6 mg/dL); assay type: functional
Rattus norvegicus [2] = assay: Increase in liver to body weight ratio in sucrose-fed Sprague-Dawley rat model at 0.4 mmol/kg, po bid administered for 7 days measured after 12 hrs post last dose (reference value: 4.07 +/- 0.28 %); assay type: ADME, organism-based; conditions: in vivo
Rattus norvegicus [3] = assay: Increase in liver to body weight ratio in sucrose-fed Sprague-Dawley rat model at 0.2 mmol/kg, po bid administered for 7 days measured after 12 hrs post last dose (reference value: 4.07 +/- 0.28 %); assay type: ADME, organism-based; conditions: in vivo
Rattus norvegicus [4] = assay: Antilipidemic activity in triton WR-1339-induced hyperlipidemic Sprague-Dawley rat model assessed as reduction of serum triglyceride level at 0.124 mM/kg relative to control; assay type: functional; parameters: scale not given: the % may be the effect or the level left
Rattus norvegicus [5] = assay: Increase in microsomal protein level in sucrose-fed Sprague-Dawley rat model at 0.2 mmol/kg, po bid administered for 7 days measured after 12 hrs post last dose (reference value: 32.7 +/- 2.2 mg/gm); assay type: ADME, organism-based; conditions: in vivo
Rattus norvegicus [6] = assay: Antilipidemic activity in purina chow fed Sprague-Dawley rat assessed as reduction of serum triglyceride level at 0.124 mM/kg relative to control; assay type: functional; parameters: scale not given: the % may be the effect or the level left
Rattus norvegicus [7] = assay: Increase in ethylmorphine N-demethylase activity in sucrose-fed Sprague-Dawley rat model at 0.2 mmol/kg, po bid administered for 7 days measured after 12 hrs post last dose relative to control; assay type: ADME, organism-based; conditions: in vivo
Rattus norvegicus [8] = assay: Effect on cytochrome b5 level in sucrose-fed Sprague-Dawley rat model assessed per mg of protein at 0.2 mmol/kg, po bid administered for 7 days measured after 12 hrs post last dose (reference value: 0.184 +/- 0.023 nmol); assay type: ADME, organism-based; conditions: in vivo
Rattus norvegicus [9] = assay: Antilipidemic activity in triton WR-1339-induced hyperlipidemic Sprague-Dawley rat model assessed as reduction of plasma lipid level at 0.124 mM/kg measured 43 hrs after triton WR-1339 challenge
Rattus norvegicus [10] = assay: Antilipidemic activity in purina chow fed Sprague-Dawley rat assessed as reduction of serum cholesterol level at 0.124 mM/kg relative to control; assay type: functional; parameters: scale not given: the % may be the effect or the level left
Rattus norvegicus [11] = assay: Antilipidemic activity in sucrose-fed Sprague-Dawley rat model assessed as reduction of liver cholesterol level at 0.2 mmol/kg, po bid administered for 7 days measured after 12 hrs post last dose (reference value: 1.86 +/- 0.17 mg/gm); assay type: functional
Rattus norvegicus [12] = assay: Antilipidemic activity in sucrose fed Sprague-Dawley rat model assessed as serum cholesterol level at 0.4 mmol/kg, po bid administered for 7 days measured after 12 hrs post last dose (reference value: 61.7 +/- 11.6 mg/dL); assay type: functional
Rattus norvegicus [13] = assay: Antilipidemic activity in sucrose-fed Sprague-Dawley rat model assessed as reduction in HMG-CoA reductase activity at 0.2 mmol/kg, po bid administered for 7 days measured after 12 hrs post last dose relative to control; assay type: functional
Rattus norvegicus [14] = assay: Antilipidemic activity in sucrose-fed Sprague-Dawley rat model assessed as reduction in HMG-CoA reductase activity at 0.4 mmol/kg, po bid administered for 7 days measured after 12 hrs post last dose relative to control; assay type: functional
Rattus norvegicus [15] = assay: Increase in liver weight in sucrose-fed Sprague-Dawley rat model at 0.2 mmol/kg, po bid administered for 7 days measured after 12 hrs post last dose (reference value: 11.76 +/- 1.32 gm); assay type: ADME, organism-based; conditions: in vivo
Rattus norvegicus [16] = assay: Antilipidemic activity in sucrose fed Sprague-Dawley rat model assessed as serum triglyceride level at 0.4 mmol/kg, po bid administered for 7 days measured after 12 hrs post last dose (reference value: 91.9 +/- 19.8 mg/dL); assay type: functional
Rattus norvegicus [17] = assay: Increase in NADPH cytochrome c reductase activity in sucrose-fed Sprague-Dawley rat model at 0.2 mmol/kg, po bid administered for 7 days measured after 12 hrs post last dose relative to control; assay type: ADME, organism-based; conditions: in vivo
Rattus norvegicus [18] = assay: Increase in NADPH cytochrome c reductase activity in sucrose-fed Sprague-Dawley rat model at 0.2 mmol/kg, po bid administered for 7 days measured after 12 hrs post last dose (reference value: 148.7 +/- 17.7 nmol/mg/min); assay type: ADME, organism-based; conditions: in vivo
Rattus norvegicus [19] = assay: Increase in microsomal protein level in sucrose-fed Sprague-Dawley rat model at 0.4 mmol/kg, po bid administered for 7 days measured after 12 hrs post last dose (reference value: 32.7 +/- 2.2 mg/gm); assay type: ADME, organism-based; conditions: in vivo
Rattus norvegicus [20] = assay: Antilipidemic activity in sucrose-fed Sprague-Dawley rat model assessed as reduction of liver cholesterol level at 0.4 mmol/kg, po bid administered for 7 days measured after 12 hrs post last dose (reference value: 1.86 +/- 0.17 mg/gm); assay type: functional
Rattus norvegicus [21] = assay: Increase in liver weight in sucrose-fed Sprague-Dawley rat model at 0.4 mmol/kg, po bid administered for 7 days measured after 12 hrs post last dose (reference value: 11.76 +/- 1.32 gm); assay type: ADME, organism-based; conditions: in vivo
Rattus norvegicus [22] = assay: Effect on cytochrome b5 level in sucrose-fed Sprague-Dawley rat model assessed per mg of protein at 0.4 mmol/kg, po bid administered for 7 days measured after 12 hrs post last dose (reference value: 0.184 +/- 0.023 nmol); assay type: ADME, organism-based; conditions: in vivo
Rattus norvegicus [23] = assay: Antilipidemic activity in sucrose fed Sprague-Dawley rat model assessed as serum triglyceride level at 0.2 mmol/kg, po bid administered for 7 days measured after 12 hrs post last dose (reference value: 91.9 +/- 19.8 mg/dL); assay type: functional
Rattus norvegicus [24] = assay: Antilipidemic activity in sucrose-fed Sprague-Dawley rat model assessed as reduction of liver triglyceride level at 0.4 mmol/kg, po bid administered for 7 days measured after 12 hrs post last dose relative to control; assay type: functional
Rattus norvegicus [25] = assay: Effect on cytochrome P450 level in sucrose-fed Sprague-Dawley rat model assessed per mg of protein at 0.2 mmol/kg, po bid administered for 7 days measured after 12 hrs post last dose relative to control; assay type: ADME, organism-based; conditions: in vivo
Rattus norvegicus [26] = assay: Antilipidemic activity in triton WR-1339-induced hyperlipidemic Sprague-Dawley rat model assessed as reduction of serum cholesterol level at 0.124 mM/kg relative to control; assay type: functional; parameters: scale not given: the % may be the effect or the level left
Rattus norvegicus [27] = assay: Antilipidemic activity in sucrose-fed Sprague-Dawley rat model assessed as reduction of liver triglyceride level at 0.2 mmol/kg, po bid administered for 7 days measured after 12 hrs post last dose relative to control; assay type: functional
Rattus norvegicus [28] = assay: Effect on cytochrome P450 level in sucrose-fed Sprague-Dawley rat model assessed per mg of protein at 0.2 mmol/kg, po bid administered for 7 days measured after 12 hrs post last dose (reference value: 0.361 +/- […] nmol); assay type: ADME, organism-based; conditions: in vivo
Rattus norvegicus [29] = assay: Effect on cytochrome P450 level in sucrose-fed Sprague-Dawley rat model assessed per mg of protein at 0.4 mmol/kg, po bid administered for 7 days measured after 12 hrs post last dose relative to control; assay type: ADME, organism-based; conditions: in vivo
Rattus norvegicus [30] = assay: Increase in NADPH cytochrome c reductase activity in sucrose-fed Sprague-Dawley rat model at 0.4 mmol/kg, po bid administered for 7 days measured after 12 hrs post last dose relative to control; assay type: ADME, organism-based; conditions: in vivo
Rattus norvegicus [31] = assay: Increase in ethylmorphine N-demethylase activity in sucrose-fed Sprague-Dawley rat model at 0.4 mmol/kg, po bid administered for 7 days measured after 12 hrs post last dose relative to control; assay type: ADME, organism-based; conditions: in vivo

Row | SMILES | Activity (Rattus norvegicus [2]) | Activity (Rattus norvegicus [4]) | Activity (Rattus norvegicus [6]) | Activity (Rattus norvegicus [9]) | Activity (Rattus norvegicus [10]) | Activity (Rattus norvegicus [12]) | Activity (Rattus norvegicus [14]) | Activity (Rattus norvegicus [16]) | Activity (Rattus norvegicus [19]) | Activity (Rattus norvegicus [20]) | Activity (Rattus norvegicus [21]) | Activity (Rattus norvegicus [22]) | Activity (Rattus norvegicus [24]) | Activity (Rattus norvegicus [26]) | other results
1 | CCOC(=O)[C@@]12Oc3ccc(Cl)cc3[C@@H]1[C@@H]1c3cc(Cl)ccc3O[C@@]12C(=O)OCC | 4.03% | 33% | 24.3% | inactive | 63.9% | 81 mg/dL | 2.41 nmol/mg/h | 102.7 mg/dL | 38.2 mg/g | 2.1 mg/g | 11.99 g | 0.19 nmol | 12.34 mg/g | 176.7% | Activity (Rattus norvegicus [1]): 69.5 mg/dL; Activity (Rattus norvegicus [3]): 3.69%; Activity (Rattus norvegicus [5]): 41.4 mg/g; Activity (Rattus norvegicus [7]): 157%; Activity (Rattus norvegicus [8]): 0.179 nmol; Activity (Rattus norvegicus [11]): 1.98 mg/g; Activity (Rattus norvegicus [13]): 2.42 nmol/mg/h; Activity (Rattus norvegicus [15]): 11.24 g; Activity (Rattus norvegicus [17]): 123%; Activity (Rattus norvegicus [18]): 168.7 nmol/mg/min; Activity (Rattus norvegicus [23]): 70.2 mg/dL; Activity (Rattus norvegicus [25]): 138%; Activity (Rattus norvegicus [27]): 8.09 mg/g; Activity (Rattus norvegicus [28]): 0.386 nmol
2 | CCOC(=O)C(C)(C)Oc1ccc(Cl)cc1 [CLOFIBRATE] | 5.24% | 22.3% | 24.1% | inactive | 87% | 31.7 mg/dL | 2.1 nmol/mg/h | 26.9 mg/dL | 39.3 mg/g | 1.84 mg/g | 14.3 g | 0.2 nmol | 3.21 mg/g | 93.2% | Activity (Rattus norvegicus [29]): 262%; Activity (Rattus norvegicus [30]): 163%; Activity (Rattus norvegicus [31]): 180%
